This is an account of results in patent US20120251528A1, “Non-Human Mammal Model Of Human Hematopoietic Cancer” (priority 2009, published 2012).

One data set has as its system GFP+ leukemic cells. The experiment in a line: Combinatorial treatment of Alemtuzumab and cyclophosphamide in secondary GFP/myc/bcl mice: GFP+ cells per organ. The following applies: 9 days after beginning of treatment; for effect on the leukemia in the bone marrow: single treatment. The data set is classed as in vivo, mouse. Here is the method:
Absolute number of GFP+leukemic cells per organ was assessed by FACS and absolute count calculation.
Cohorts of secondary recipients were generated and divided into treatment groups as described above.

Data set [1] relates to GFP/myc/bcl cells. The experiment in a line: Complement-dependent cytotoxicity (CDC) in vitro, Annexin-V-PE/7-AAD flow cytometry. Type of data set: cell-based, human. The following applies: 1-100 μg/ml, 48 h. Here is the method:
Media were supplemented with human, murine BL6- as NSG-derived serum. Serum-free media and heat-inactivated serum served as control. Cell viability was assessed by Annexin-V-PE/7-AAD flow cytometry after 48 h.
(§1) Antibody-bound leukemic cells can also be killed by complement-mediated lysis.
(In general: Flow cytometry measures light scatter and fluorescence of single cells or particles in a stream.)

For a further data set, the system named is ALL-cells. Put plainly: Direct cytotoxic effects on ALL-cells in vitro. Type of data set: cell-based, human.
Source text: as §1

In data set [2] the test system is GFP/myc/bcl cells. The following applies: 5 mg/kg i.v. days 1, 4, 7, two days after completing treatment.
Description: Mice were treated 14 days after transplantation while showing leukemic phenotype. […] Response to treatment was assessed after 7 days, a leukemic burden was measured by flow cytometry and calculating absolute cell count per organ.
(§3) Each mouse in a cohort of secondary mice was injected with ˜10^6 GFP+ cells from the same primary donor mouse. 18-20 days later, mice were divided into 2 groups, and stratified for the density of GFP+ cells found in their peripheral blood (i.e. having the same (or similar) number of GFP+ cells/uL of blood).
(§4) Two days after completing the course of treatment, several mice were euthanized and the number of GFP+ cells in various organs was determined.
For data set [3], the system named is GFP/myc/bcl cells. The experiment in a line: Cumulative survival of secondary GFP/myc/bcl mice, Alemtuzumab vs control. The data set is classed as in vivo, mouse. The following applies: Log-rank test; FIG. 4C.
Description: as §3, §4
Another data set has as its system GMB cells. Put plainly: Antibody-dependent cellular cytotoxicity with thioglycollate induced macrophages from NSG mice in vitro. The data set is classed as cell-based, human. The following applies: for macrophage-mediated killing / lysis of leukemia cells: induced peritoneal NSG macrophages.
Source text: as §1

The test system of the next data set is leukemic cells. The experiment in a line: Alemtuzumab treatment of macrophage-depleted (clodronate liposomes) tumor-bearing mice. Type of data set: in vivo, mouse. The following applies: treated 2 days after injection of clodronate liposomes.
The nature of data set [4]: Alemtuzumab distribution in vivo, IVIS fluorometry. Also on record: species or system mouse. The following applies: 24 h; for tissue distribution of fluorescent signal (spleen, liver, bones): 5 mg/kg i.v. The procedure:
High signal in dissected whole brain.
(§2) Mice were sacrificed after 24 h and imaged at an IVIS fluorometer. […] Organs were homogenized and cells from these organs were directly assessed for Alemtuzumab-AlexaFluor750 binding by flow cytometry.

The test system of a further data set is GFP+ leukemia cells. Put plainly: In vivo binding of GFP/myc/bcl cells by labeled Alemtuzumab, flow cytometry of homogenized organs. Set-up: species or system mouse. The following applies: 5 mg/kg, 24 h. The procedure:
Organs were homogenized and antibody binding to cells detected by flow cytometry.
as §2

Data set [5] has as its system GFP/myc/bcl cells. Put plainly: F(ab)2 fragments of Alemtuzumab injected to secondary GFP/myc/bcl mice (Fc-dependent effects). The following applies: injected day 14 after transplantation, vs Alemtuzumab control. Type of data set: in vivo, mouse.
Source text: as §1

[6] abbreviates: listed as Alemtuzumab-AlexaFluor750.

Entries after “also recorded” stand apart in the source; their conditions may differ. A value given as a limit tells only on which side of the number the result lay.

Turning to `O=P1(N(CCCl)CCCl)NCCCO1` (stereo not drawn) [cyclophosphamide], the “reduction of GFP+ cells found in the brain” value with GFP+ leukemic cells (150 mg/kg i.p. days 1 and 2) is listed as roughly 300 fold. Moreover, the “reduction of GFP+ cells in the peripheral blood” value in the data set on GFP+ leukemic cells (single agent) is recorded as “as effectively as the treatment using Alemtuzumab alone”. Besides, the “effect on the leukemia in the bone marrow” value with GFP+ leukemic cells is “neither single treatment had much effect”.
With Alemtuzumab, the “complement-dependent cytotoxicity, human serum” value in the data set on GFP/myc/bcl cells [1] (media with human serum) was “detected in human serum”. In addition, in the data set with GFP/myc/bcl cells [1] (media with murine BL6- or NSG-derived serum), the “complement-dependent cytotoxicity, murine sera” value was “did not mediate Alemtuzumab mediated tumor cell killing; also recorded: not in murine sera”. The “direct cytotoxic effects on ALL-cells” value with ALL-cells was “no direct cytotoxic effects”. For the same compound, the “number of GFP+ cells in bone marrow vs control mice” value in the data set with GFP/myc/bcl cells [2] (bone marrow) is listed as “approximately the same”. In the data set with GFP/myc/bcl cells [2] (brain), the “number of GFP+ cells in brain vs control mice” value is on record as “approximately the same”. Besides, the “decrease of GFP+ cells in liver vs PBS” value in the data set with GFP/myc/bcl cells [2] (liver) is roughly 400 fold. Besides, the “decrease of GFP+ cells in peripheral blood vs PBS” value with GFP/myc/bcl cells [2] (peripheral blood) is given as roughly 30 fold. Moreover, in the data set with GFP/myc/bcl cells [2] (spleen), the “decrease of GFP+ cells in spleen vs PBS” value was roughly 3300 fold. In the data set with GFP/myc/bcl cells [3], the “survival vs PBS-treated control” value is recorded as “survived significantly longer; also recorded: significant prolonged survival”. Also, the “effect on GFP+ cells in the brain” value with GFP+ leukemic cells (single agent) is listed as “no effect”. In addition, in the data set on GFP+ leukemic cells, the “effect on the leukemia in the bone marrow” value is “neither single treatment had much effect”. Moreover, the “time within which macrophages killed GMB cells” value with GMB cells (NSG macrophages in the presence of antibody) is no more than 13 h. The “macrophage-mediated killing / lysis of leukemia cells” value in the data set on GMB cells is “capable of ALL-cell lysis”. The “reduction of leukemic cells in the spleen of macrophage-depleted mice” value in the data set with leukemic cells was “no reduction of leukemic cells in the spleen”.
“AlexaFluor750 labeled Alemtuzumab: Alemtuzumab labeled with AlexaFluor 750”: in [4], the “tissue distribution of fluorescent signal (spleen, liver, bones)” value is “Intense staining of spleen, liver and bones”. Also, the “tissue distribution of fluorescent signal (spleen, liver, bones)” value in data set [4] (listed as Labeled Alemtuzumab) was “focused on spleen and bones”. Further, the “fluorescent signal in dissected whole brain” value in [4] (i.v.) was “High signal”. In the data set on GFP+ leukemia cells, the “antibody binding to GFP+ leukemia cells, bone marrow” value was “increased AlexaFLuor750 signal”; the “antibody binding to GFP+ leukemia cells, spleen” value is given as “increased AlexaFLuor750 signal”; the “antibody binding to brain-derived leukemia cells” value is reported as “no detection could be detected”. In addition, in the data set on GFP+ leukemia cells (setting [6]), the “antibody binding to GFP+ leukemia cells, bone marrow” value is given as “Strong antibody binding”; the “antibody binding to GFP+ leukemia cells, spleen” value is reported as “Strong antibody binding”; the “antibody binding to brain-derived leukemia cells” value is on record as “no specific binding”.
Turning to “F(ab)2 fragments of Alemtuzumab: pepsin-digested F(ab)2-fragments of Alemtuzumab lacking the Fc part”, the “therapeutic effect in secondary GFP/myc/bcl mice” value is “no therapeutic effects” with GFP/myc/bcl cells [5] and “no therapeutic effect” with GFP/myc/bcl cells [5] (listed as F(ab)2-fragments of Alemtuzumab). Moreover, the “macrophage-mediated killing / lysis of leukemia cells” value with GMB cells is listed as “no effect”; in the data set with GMB cells (listed as F(ab)2 fragments), “No GFP/myc/bcl-directed killing”.
